Reference: patent US11654196B2, “Dosing regimens for echinocandin class compounds” (priority 2012, dated 2023)
Read-outs that look alike come from different tables or passages of the source. *1 amine or outer side, *2 acyl side, *3 side chain or, on linkers, in order; H or OH if unused. Where a SMILES comes first, the peptide text is derived from it. Bridges are numbered along the chain shown (N, C = ends). [ ]: non-standard residue; d: D form. The star is where a group is joined. hTyr(3S-OH,4S-OH,3'-OSO3H) = N[C@H](C(=O)O)[C@H](O)[C@@H](O)c1ccc(O)c(OS(=O)(=O)O)c1; Orn(4R-OH,5R-OH) = O=C([C@H](C[C@@H](O)[C@@H](O)N[*:3])N[*:1])[*:2]; Pro(3S-OH,4S-Me) = C[C@H]1CN[C@H](C(=O)O)[C@H]1O; X1 = CCCCCOc1ccc(-c2cc(-c3ccc(C(=O)*)cc3)no2)cc1; Gln(3R-OH) = NC(=O)C[C@@H](O)[C@H](N)C(=O)O; Hyp = O=C(O)[C@@H]1C[C@@H](O)CN1

Tests used:
[1] = Pharmacokinetics following intravenous administration in beagle dogs; type: in vivo; details: 1.4 mg/kg IV slow bolus
Description: Echinocandin class compounds were administered to beagle dogs weighing approximately 6-10 kg. Each compound was dosed at 1.4 mg/kg in aqueous saline (with or without 0.5% Tween) over course of 1-10 minutes. […] The dogs were fasted at least 12 hours prior to each dosing and offered food after the 4-hour blood sample was taken; water was withheld for 1 hour prior to and 4 hours following each dosing event. The dose for each animal was based on its most recent body weight. The test article was injected intravenously via a catheter placed in the cephalic vein as a slow bolus.
Blood was collected via the jugular vein. All blood samples (1 mL each) were collected into K3EDTA tubes. Following blood collection, the samples were immediately inverted several times and were held on wet ice pending centrifugation. The samples were centrifuged within 30 minutes of collection under refrigeration (˜5° C. for 10 minutes at 2000 g) to obtain plasma. The plasma was frozen immediately on dry ice after separation. The plasma samples were stored at approximately ˜70° C. until analysis.
Plasma (100 μL) was precipitated with 400 μL of 0.1% formic acid in acetonitrile containing the internal standard (100 ng/mL pneumocandin). The samples were then capped and vortexed for about 30 seconds followed by centrifugation at 14,000 rpm at room temperature for 10 minutes. Following centrifugation 200 μL of supernatant was transferred to plastic autosampler vials containing 200 μL of 0.1% formic acid in water and vortexed. Samples were then analyzed by LCMSMS.
All pharmacokinetic calculations were performed using WinNonlin version 4.1 (Pharsight Corp) by noncompartmental analysis.

[2] = Pharmacokinetics (oral bioavailability) following oral administration in beagle dogs; type: in vivo; design: key to Improvement (ratio of % oral bioavailability to saline): NI = no improvement in oral bioavailability in comparison to saline; details: for % BA in saline: oral about 7-10 mg/kg, formulation 11 (saline)
Description: Echinocandin class compounds were administered to beagle dogs weighing approximately 6-10 kg. Each animal received the appropriate prepared test article in a single oral capsule dose at a target dose level of about 7-10 mg/kg. Immediately after dosing, each animal was offered 20 mL-30 mL of water orally (Groups 1-4) or 30 mL of water orally to assist in swallowing the capsule.
Animals were treated and blood samples were drawn and analyzed as provided in Example 1.
The bioavailability of each oral dose formulation was estimated by comparison to intravenous plasma concentration data in dogs from Example 1. The results provided in Table 3 show the oral bioavailability for the echinocandin class compound in saline (formulation 11), and the improvement over saline with the use of a formulation of the invention.

[3] = Mouse, literature values; cited from earlier work
[4] = Rat, literature values; cited from earlier work
[5] = Rabbit, literature values; cited from earlier work
[6] = Man, literature values; cited from earlier work

AUC [1] [ng·h/mL] | Cmax [1] [ng/mL] | Mean clearance [1] [mL/min/kg] | T1/2 [1] [h] | Volume of Distribution [1] [L/kg] | % BA in saline [2] [%] | Improvement (ratio of % oral bioavailability to saline) ([2]; oral, formulation 1) | Improvement (ratio of % oral bioavailability to saline) ([2]; oral, formulation 5) | % BA ([2]; oral, formulation 1) | Improvement (ratio of % oral bioavailability to saline) ([2]; oral, formulation 7) | Improvement (ratio of % oral bioavailability to saline) ([2]; oral, formulation 6) | Improvement (ratio of % oral bioavailability to saline) ([2]; oral, formulation 3) | Compound | Half-life [3] [h] | Half-life [4] [h] | Half-life [5] [h] | Half-life [6] [h]
46200 | 2660 | 0.365 | 27.6 | 0.874 | – | NI | NI | – | NI | – | NI | CCCCCOc1ccc(-c2ccc(-c3ccc(C(=O)NC4CC(O)C(NCC[N+](C)(C)C)NC(=O)C5C(O)C(C)CN5C(=O)C(C(C)O)NC(=O)C(C(O)C(O)c5ccc(O)cc5)NC(=O)C5CC(O)CN5C(=O)C(C(C)O)NC4=O)cc3)cc2)cc1 (centres unmarked) [Compound 37] | – | – | – | –
50800 | 3630 | 0.377 | 21.0 | 0.687 | 5.15 | NI | NI | – | – | – | – | CCCCCOc1ccc(-c2ccc(-c3ccc(C(=O)NC4CC(O)C(NCCNCCO)NC(=O)C5C(O)C(C)CN5C(=O)C(C(C)O)NC(=O)C(C(O)C(O)c5ccc(O)cc5)NC(=O)C5CC(O)CN5C(=O)C(C(C)O)NC4=O)cc3)cc2)cc1 (centres unmarked) [Compound 39] | – | – | – | –

Further lines, the molecule ahead of its results:

Compound | AUC [1] [ng·h/mL] | Cmax [1] [ng/mL] | Mean clearance [1] [mL/min/kg] | T1/2 [1] [h] | Volume of Distribution [1] [L/kg] | % BA in saline [2] [%] | Improvement (ratio of % oral bioavailability to saline) ([2]; oral, formulation 1) | Improvement (ratio of % oral bioavailability to saline) ([2]; oral, formulation 5) | % BA ([2]; oral, formulation 1) | Improvement (ratio of % oral bioavailability to saline) ([2]; oral, formulation 7) | Improvement (ratio of % oral bioavailability to saline) ([2]; oral, formulation 6) | Improvement (ratio of % oral bioavailability to saline) ([2]; oral, formulation 3) | Half-life [3] [h] | Half-life [4] [h] | Half-life [5] [h] | Half-life [6] [h]
CCCCCOc1ccc(-c2ccc(-c3ccc(C(=O)NC4CC(O)C(OCCOCCOC)NC(=O)C5C(O)C(C)CN5C(=O)C(C(C)O)NC(=O)C(C(O)C(O)c5ccc(O)cc5)NC(=O)C5CC(O)CN5C(=O)C(C(C)O)NC4=O)cc3)cc2)cc1 (centres unmarked) [Compound 19] | 96100 | 7700 | 0.202 | 18.9 | 0.331 | 5.74 | NI | NI | – | – | – | – | – | – | – | –
CCCCCOc1ccc(-c2ccc(-c3ccc(C(=O)NC4CC(O)C(OCCOCCO)NC(=O)C5C(O)C(C)CN5C(=O)C(C(C)O)NC(=O)C(C(O)C(O)c5ccc(O)cc5)NC(=O)C5CC(O)CN5C(=O)C(C(C)O)NC4=O)cc3)cc2)cc1 (centres unmarked) [Compound 21] | 113000 | 6740 | 0.145 | 28.9 | 0.361 | 4.70 | 1.3 | NI | (6.42%) | NI | – | – | – | – | – | –
CCCCCOc1ccc(-c2ccc(-c3ccc(C(=O)NC4CC(O)C(OCCOCCN)NC(=O)C5C(O)C(C)CN5C(=O)C(C(C)O)NC(=O)C(C(O)C(O)c5ccc(O)cc5)NC(=O)C5CC(O)CN5C(=O)C(C(C)O)NC4=O)cc3)cc2)cc1 (centres unmarked) [Compound 26] | 67167 | 4080 | 0.219 | 33.7 | 0.627 | – | – | NI | – | NI | NI | – | – | – | – | –
CCCCCOc1ccc(-c2cc(-c3ccc(C(=O)N[C@H]4C[C@@H](O)[C@@H](O)NC(=O)[C@@H]5[C@@H](O)[C@@H](C)CN5C(=O)[C@H]([C@H](O)CC(N)=O)NC(=O)[C@H]([C@H](O)[C@@H](O)c5ccc(O)c(OS(=O)(=O)O)c5)NC(=O)[C@@H]5C[C@@H](O)CN5C(=O)[C@H]([C@@H](C)O)NC4=O)cc3)no2)cc1 [Micafungin, micafungin] (X1-[Orn(4R-OH,5R-OH)]T[Hyp][hTyr(3S-OH,4S-OH,3'-OSO3H)][Gln(3R-OH)][Pro(3S-OH,4S-Me)]; lactam 1-C) | – | – | – | – | – | – | – | – | – | – | – | – | 7 to 13 | 5 | 3 | 10 to 17
